Article PMC12454493, “Insight on novel sulfamoylphenyl pyrazole derivatives as anticancer carbonic anhydrase inhibitors” (Molecular Diversity, 2024)

What was measured:
CCRF-CEM = assay: NCI-60 one-dose SRB screen (Leukemia); assay type: cell-based; conditions: Homo sapiens, single dose 10 µM, 48 h, read-out: Growth inhibition percent (GI %)
A549/ATCC = assay: NCI-60 one-dose SRB screen (Non-Small Cell Lung Cancer); assay type: cell-based; conditions: Homo sapiens, single dose 10 µM, 48 h, read-out: Growth inhibition percent (GI %)
EKVX = assay: as above; assay type: cell-based; conditions: Homo sapiens, single dose 10 µM, 48 h, read-out: Growth inhibition percent (GI %)
HOP-62 = assay: as above; assay type: cell-based; conditions: Homo sapiens, single dose 10 µM, 48 h, read-out: Growth inhibition percent (GI %)
HOP-92 = assay: as above; assay type: cell-based; conditions: Homo sapiens, single dose 10 µM, 48 h, read-out: Growth inhibition percent (GI %)
NCI-H226 = assay: as above; assay type: cell-based; conditions: Homo sapiens, single dose 10 µM, 48 h, read-out: Growth inhibition percent (GI %)
NCI-H23 = assay: as above; assay type: cell-based; conditions: Homo sapiens, single dose 10 µM, 48 h, read-out: Growth inhibition percent (GI %)
NCI-H322M = assay: as above; assay type: cell-based; conditions: Homo sapiens, single dose 10 µM, 48 h, read-out: Growth inhibition percent (GI %)
NCI-H460 = assay: as above; assay type: cell-based; conditions: Homo sapiens, single dose 10 µM, 48 h, read-out: Growth inhibition percent (GI %)
NCI-H522 = assay: as above; assay type: cell-based; conditions: Homo sapiens, single dose 10 µM, 48 h, read-out: Growth inhibition percent (GI %)
COLO 205 = assay: NCI-60 one-dose SRB screen (Colon Cancer); assay type: cell-based; conditions: Homo sapiens, single dose 10 µM, 48 h, read-out: Growth inhibition percent (GI %)
HCC-2998 = assay: NCI-60 one-dose SRB screen (Colon Cancer); assay type: cell-based; conditions: Homo sapiens, single dose 10 µM, 48 h, read-out: Growth inhibition percent (GI %)
HCT-116 = assay: NCI-60 one-dose SRB screen (Colon Cancer); assay type: cell-based; conditions: Homo sapiens, single dose 10 µM, 48 h, read-out: Growth inhibition percent (GI %)
HCT-15 = assay: NCI-60 one-dose SRB screen (Colon Cancer); assay type: cell-based; conditions: Homo sapiens, single dose 10 µM, 48 h, read-out: Growth inhibition percent (GI %)
KM12 = assay: NCI-60 one-dose SRB screen (Colon Cancer); assay type: cell-based; conditions: Homo sapiens, single dose 10 µM, 48 h, read-out: Growth inhibition percent (GI %)
SW-620 = assay: NCI-60 one-dose SRB screen (Colon Cancer); assay type: cell-based; conditions: Homo sapiens, single dose 10 µM, 48 h, read-out: Growth inhibition percent (GI %)
SF-268 = assay: NCI-60 one-dose SRB screen (CNS Cancer); assay type: cell-based; conditions: Homo sapiens, single dose 10 µM, 48 h, read-out: Growth inhibition percent (GI %)
SF-295 = assay: NCI-60 one-dose SRB screen (CNS Cancer); assay type: cell-based; conditions: Homo sapiens, single dose 10 µM, 48 h, read-out: Growth inhibition percent (GI %)
SF-539 = assay: NCI-60 one-dose SRB screen (CNS Cancer); assay type: cell-based; conditions: Homo sapiens, single dose 10 µM, 48 h, read-out: Growth inhibition percent (GI %)
SNB-19 = assay: NCI-60 one-dose SRB screen (CNS Cancer); assay type: cell-based; conditions: Homo sapiens, single dose 10 µM, 48 h, read-out: Growth inhibition percent (GI %)
SNB-75 = assay: NCI-60 one-dose SRB screen (CNS Cancer); assay type: cell-based; conditions: Homo sapiens, single dose 10 µM, 48 h, read-out: Growth inhibition percent (GI %)
U251 = assay: NCI-60 one-dose SRB screen (CNS Cancer); assay type: cell-based; conditions: Homo sapiens, U-251, single dose 10 µM, 48 h, read-out: Growth inhibition percent (GI %)
LOX IMVI = assay: NCI-60 one-dose SRB screen (Melanoma); assay type: cell-based; conditions: Homo sapiens, single dose 10 µM, 48 h, read-out: Growth inhibition percent (GI %)
M14 = assay: NCI-60 one-dose SRB screen (Melanoma); assay type: cell-based; conditions: Homo sapiens, single dose 10 µM, 48 h, read-out: Growth inhibition percent (GI %)
MALME-3M = assay: NCI-60 one-dose SRB screen (Melanoma); assay type: cell-based; conditions: Homo sapiens, single dose 10 µM, 48 h, read-out: Growth inhibition percent (GI %)
MDA-MB-435 = assay: NCI-60 one-dose SRB screen (Melanoma); assay type: cell-based; conditions: Homo sapiens, single dose 10 µM, 48 h, read-out: Growth inhibition percent (GI %)
SK-MEL-28 = assay: NCI-60 one-dose SRB screen (Melanoma); assay type: cell-based; conditions: Homo sapiens, single dose 10 µM, 48 h, read-out: Growth inhibition percent (GI %)
SK-MEL-2 = assay: NCI-60 one-dose SRB screen (Melanoma); assay type: cell-based; conditions: Homo sapiens, single dose 10 µM, 48 h, read-out: Growth inhibition percent (GI %)
SK-MEL-5 = assay: NCI-60 one-dose SRB screen (Melanoma); assay type: cell-based; conditions: Homo sapiens, single dose 10 µM, 48 h, read-out: Growth inhibition percent (GI %)
UACC-257 = assay: NCI-60 one-dose SRB screen (Melanoma); assay type: cell-based; conditions: Homo sapiens, single dose 10 µM, 48 h, read-out: Growth inhibition percent (GI %)
UACC-62 = assay: NCI-60 one-dose SRB screen (Melanoma); assay type: cell-based; conditions: Homo sapiens, single dose 10 µM, 48 h, read-out: Growth inhibition percent (GI %)
A498 = assay: NCI-60 one-dose SRB screen (Renal Cancer); assay type: cell-based; conditions: Homo sapiens, single dose 10 µM, 48 h, read-out: Growth inhibition percent (GI %)
ACHN = assay: NCI-60 one-dose SRB screen (Renal Cancer); assay type: cell-based; conditions: Homo sapiens, single dose 10 µM, 48 h, read-out: Growth inhibition percent (GI %)
CAKI-1 = assay: NCI-60 one-dose SRB screen (Renal Cancer); assay type: cell-based; conditions: Homo sapiens, single dose 10 µM, 48 h, read-out: Growth inhibition percent (GI %)
RXF 393 = assay: NCI-60 one-dose SRB screen (Renal Cancer); assay type: cell-based; conditions: Homo sapiens, single dose 10 µM, 48 h, read-out: Growth inhibition percent (GI %)
SN12C = assay: NCI-60 one-dose SRB screen (Renal Cancer); assay type: cell-based; conditions: Homo sapiens, single dose 10 µM, 48 h, read-out: Growth inhibition percent (GI %)
TK-10 = assay: NCI-60 one-dose SRB screen (Renal Cancer); assay type: cell-based; conditions: Homo sapiens, single dose 10 µM, 48 h, read-out: Growth inhibition percent (GI %)
UO-31 = assay: NCI-60 one-dose SRB screen (Renal Cancer); assay type: cell-based; conditions: Homo sapiens, single dose 10 µM, 48 h, read-out: Growth inhibition percent (GI %)
BT-549 = assay: NCI-60 one-dose SRB screen (Breast Cancer); assay type: cell-based; conditions: Homo sapiens, single dose 10 µM, 48 h, read-out: Growth inhibition percent (GI %)
HS 578T = assay: NCI-60 one-dose SRB screen (Breast Cancer); assay type: cell-based; conditions: Homo sapiens, single dose 10 µM, 48 h, read-out: Growth inhibition percent (GI %)
MCF-7 = assay: NCI-60 one-dose SRB screen (Breast Cancer); assay type: cell-based; conditions: Homo sapiens, MCF7, single dose 10 µM, 48 h, read-out: Growth inhibition percent (GI %)
MDA-MB-231/ATCC = assay: NCI-60 one-dose SRB screen (Breast Cancer); assay type: cell-based; conditions: Homo sapiens, single dose 10 µM, 48 h, read-out: Growth inhibition percent (GI %)
MDA-MB-468 = assay: NCI-60 one-dose SRB screen (Breast Cancer); assay type: cell-based; conditions: Homo sapiens, single dose 10 µM, 48 h, read-out: Growth inhibition percent (GI %)
T-47D = assay: NCI-60 one-dose SRB screen (Breast Cancer); assay type: cell-based; conditions: Homo sapiens, T47D, single dose 10 µM, 48 h, read-out: Growth inhibition percent (GI %)
hCA IX = hCA IX (Homo sapiens, UniProt Q16790); assay: CA inhibitory activity, spectrophotometric p-NPA assay; assay type: biochemical; conditions: p-NPA substrate, pH 7.5, 25 °C, triplicate; read-out: IC50 (µM) ± SD hCA IX

Compound: Cc1ccc(-c2nn(-c3ccc(S(N)(=O)=O)cc3)cc2-c2n[nH]c(=S)[nH]2)cc1 [Compound 11, 4-[4-(5-Mercapto-1H-1,2,4-triazol-3-yl)-3-(p-tolyl)-1H-pyrazol-1-yl] benzenesulfonamide]
- inhibition at 10 µM (CCRF-CEM): < 5%
- inhibition at 10 µM (A549/ATCC): < 5%
- inhibition at 10 µM (EKVX): < 5%
- inhibition at 10 µM (HOP-62): < 5%
- inhibition at 10 µM (HOP-92): < 5%
- inhibition at 10 µM (NCI-H226): < 5%
- inhibition at 10 µM (NCI-H23): < 5%
- inhibition at 10 µM (NCI-H322M): < 5%
- inhibition at 10 µM (NCI-H460): < 5%
- inhibition at 10 µM (NCI-H522): < 5%
- inhibition at 10 µM (COLO 205): < 5%
- inhibition at 10 µM (HCC-2998): < 5%
- inhibition at 10 µM (HCT-116): < 5%
- inhibition at 10 µM (HCT-15): < 5%
- inhibition at 10 µM (KM12): < 5%
- inhibition at 10 µM (SW-620): < 5%
- inhibition at 10 µM (SF-268): 9.56%
- inhibition at 10 µM (SF-295): 9.95%
- inhibition at 10 µM (SF-539): 8.18%
- inhibition at 10 µM (SNB-19): 13%
- inhibition at 10 µM (SNB-75): 23.9%
- inhibition at 10 µM (U251): 5.33%
- inhibition at 10 µM (LOX IMVI): 13.5%
- inhibition at 10 µM (M14): < 5%
- inhibition at 10 µM (MALME-3M): < 5%
- inhibition at 10 µM (MDA-MB-435): < 5%
- inhibition at 10 µM (SK-MEL-28): < 5%
- inhibition at 10 µM (SK-MEL-2): < 5%
- inhibition at 10 µM (SK-MEL-5): < 5%
- inhibition at 10 µM (UACC-257): < 5%
- inhibition at 10 µM (UACC-62): 12.9%
- inhibition at 10 µM (A498): < 5%
- inhibition at 10 µM (ACHN): < 5%
- inhibition at 10 µM (CAKI-1): 11.4%
- inhibition at 10 µM (RXF 393): 10.1%
- inhibition at 10 µM (SN12C): 7.65%
- inhibition at 10 µM (TK-10): < 5%
- inhibition at 10 µM (UO-31): < 5%
- inhibition at 10 µM (BT-549): < 5%
- inhibition at 10 µM (HS 578T): < 5%
- inhibition at 10 µM (MCF-7): 6.49%
- inhibition at 10 µM (MDA-MB-231/ATCC): < 5%
- inhibition at 10 µM (MDA-MB-468): < 5%
- inhibition at 10 µM (T-47D): 21.2%
- IC50 (hCA IX): 0.24 ± 0.011 µM
